{
  "source": "patent US20020025508A1",
  "about": "“Process for finding a protease inhibitor” (priority 2000, published 2002)",
  "type_in_all_cases": "cell-based, human",
  "key": {"[1]": {"test_system": "HTS test cell lines Aβ-KKK-ER/59 and Aβ-KKK/52 (H4 cells)", "assay": "Alamar Blue vitality (cytotoxicity) test", "conditions": "clones Aβ-KKK-ER/59 and Aβ-KKK/52, entire range of concentrations, parallel to luciferase test", "experimental": "A possible toxic effect of the BFA (in different concentrations) on the cells was investigated using an Alamar Blue test (see below) which was carried out in parallel to the luciferase test.\nAlamar Blue (Messrs. Biosource International, VE=100 ml, Cat.No. DAL 1100 (AL-01 -100)) was sterile-filtered. The seeding of the cells and substance incubation were carried out as in Example 1.\nThe Alamar blue incubation was carried out parallel to the luciferase test.\nAlamar blue was diluted to 5% with whole medium (DMEM m 4.5 g/l glucose+10% FCS+1% glutamine+1% Pen/Strep). The medium was suction filtered. The cells were washed once with medium or PBS. One hundred microliters of (5%) Alamar blue were added (96 well plate) and a plate was incubated for 1 hour in the incubator at 37° C. and in 5% CO2. Fluorimetric measurement was carried out at an input wavelength of 544 nm, an emission wavelength of 590 nm and a measuring time of 0.3 s/well. The results are given as a percentage of the control."}, "γ-secretase": {"test_system": "γ-secretase", "assay": "γ-secretase HTS luciferase reporter assay (Aβ-KKK/Gal4 substrate, SteadyGlo)", "conditions": "different concentrations; for inhibition of Aβ formation (luciferase signal): cell clones Aβ-KKK-ER/40, 59, 65 and Aβ-KKK/52 (also Aβ-KKK/40 for substance B), overnight", "description": "H4 neuroglioma cells (Accession Number HTB 148 at the American Type Culture Collection, Manassas, Va., USA) were stably transfected under standard conditions with the reporter construct pFRLuc (Stratagene) which carries the gene for luciferase which is under the control of a promoter containing the Gal4 DNA binding domain. […] In order to prepare the Aβ-KKK/Gal4 construct, a sequence which contained the N-terminal signal sequence of APP and the first 55 amino acids of Aβ (Shoji, M. et al., Science, 1992; 158:126-129) was attached to the Gal4 coding sequence (Laughan, A. and Gesteland, R., Molec. Cell Biol., 1984, 4:260-267) by genetic engineering methods and cloned into the expression vector pcDNA3neo (Invitrogen). This construct was designated Aβ-KKK/Gal4. In order to insert an ER-retention signal in the substrate of the γ-secretase, the last nucleotides of the Gal4 were modified by genetic engineering methods so that they coded for amino acids KKLI. This construct was named Aβ-KKK-ER/Gal4. The cell clone obtained as described above was used for the second stable transfection with pcDNA3/Aβ-KKK/Gal4 or pcDNA3/Aβ-KKK-ER/Gal4 and the selection was carried out with neomycin under standard conditions (Sambrook and Maniatis, Molecular Cloning: A Laboratory Manual, Cold Spring Harbor Laboratory, Cold Spring Harbor, N.Y., 1989). Individual neomycin-resistant cell clones were tested for expression of luciferase. The clones with the highest expression were used for the substance analyses. All the transfections were carried out using the Fugene transfection system of Boehringer Mannheim in accordance with the manufacturer's instructions.\nThe doubly stable HTS cell line is seeded onto a 96/384 microtitre plate. When the cells achieved confluence they are incubated with the test substance in question for a specified length of time.\nBy the presence of an endogenous or exogenous γ-secretase activity in the H4 cells, the substrate (Aβ-KKK/Gal4) is cleaved proteolytically, whereupon the transactivator Gal4 can detach itself from the membrane and enter the cell nucleus. In the cell nucleus, Gal4 binds to the Gal4 DNA binding domain of the reporter construct and thus activates the expression of the luciferase. When a specific γ-secretase inhibitor is present the substrate cannot be cleaved and Gal4 remains bound to the substrate on the cell membrane, leading to a reduction and even total inhibition of the luciferase activity.\nCells are seeded onto 96/[…] well plates in DMEM whole medium (10% FCS, 1% glutamine, 1% penicillin/streptomycin) in a dilution of 1:5. […] Then, the luminescence is measured. […]"}, "[2]": {"test_system": "Aβ40 and Aβ42 secreted by U373/APP751 cell line", "assay": "ELISA of extracellular Aβ40 and Aβ42 secreted by U373/APP751 cells", "experimental": "Substance A was also active in a cellular test system in which the extracellular content of Aβ40 and Aβ42 secreted by the U373 cell line (U373: ATCC No. HTB 14) was determined. This cell line, U373/APP751, is an astrocytoma cell line which overexpresses human APP751 and secretes large amounts of Aβ40 (about 1000 pg/ml/4 hours with 5×10^7 cells in 15 ml of medium) and Aβ42 (about 1000 pg/ml/4 hours with 5×10^7 cells in 15 ml of medium). The measurement is carried out by ELISA (Steiner, H. et al., J. Biol. Chem, 1998, 273:32322-32331)."}},
  "note": "Residues, ends and D or L forms follow the SMILES beside them. *: point of attachment. Cbz = O=C(OCc1ccccc1)*",
  "data": [
    {"smiles": "C[C@H]1CCC/C=C/[C@@H]2C[C@H](O)C[C@H]2[C@H](O)/C=C/C(=O)O1", "note": "[BFA, Brefeldin A, reference compound]", "values": [
      {"measurement": "loss of vitality (toxic effect on the cells)", "setting": "[1]", "result": "No loss of vitality"},
      {"measurement": "BFA effect on luciferase signal", "setting": "γ-secretase; cell clone Aβ-KKK/52 (without ER retention signal), 6 hours", "result": "clear BFA effect could be seen"}
    ]},
    {"smiles": "CCCCNC(=O)[C@@H](C[C@H](O)[C@H](CC1CCCCC1)NCCCC(C)C)C(C)C", "note": "[Substance A]", "values": [
      {"measurement": "inhibition of Aβ formation (luciferase signal)", "setting": "γ-secretase", "result": "inhibits Aβ formation in a manner dependent on concentration"},
      {"measurement": "Aβ40 secretion", "setting": "[2]", "result": "greatly reduced in concentration-dependent manner"},
      {"measurement": "Aβ42 secretion", "setting": "[2]", "result": "increased at sub-inhibitory doses and then also inhibited at higher doses"}
    ]},
    {"smiles": "CC(C)C(NC(=O)OCc1ccccc1)C(=O)NC(C=O)Cc1ccccc1", "note": "(stereo not drawn) [Substance B] (Cbz-Val-Phe-aldehyde; configuration not given here)", "values": [
      {"measurement": "inhibition of Aβ formation (luciferase signal)", "setting": "γ-secretase", "result": "does not inhibit Aβ formation in concentration-dependent manner"}
    ]},
    {"smiles": "Cc1nccn1Cc1ccccn1", "note": "[Substance C]", "values": [
      {"measurement": "inhibition of Aβ formation (luciferase signal)", "setting": "γ-secretase", "result": "does not inhibit Aβ formation in concentration-dependent manner"}
    ]}
  ]
}
